Results taken from patent US9238666B2, “Phosphoramidic acid prodrugs of 5-[5-phenyl-4-(pyridin-2-ylmethylamino)quinazolin-2-yl] pyridine-3-sulfonamide” (BRISTOL-MYERS SQUIBB COMPANY, priority 2012, dated 2016).
≈ marks a conversion by molar mass, not a printed value. Where two headings read alike, the source gives them in different places.

How the values were obtained:
[1] = Solubility at different pH conditions (equilibrium, 24 h, HPLC); format: physicochemical
Experimental: Protocol for Solubility Studies of the Compounds of Instant Disclosure The solubility of the compounds of the present invention have been evaluated at various pH levels. The solubility was tested using the procedure described below. Excess amount of powder compound was equilibrated with 1 mL of buffer in a 2 mL glass vial and the dispersion of the compound in buffer ensured by vortexing, followed by sonication. The vials were shaken at 300 rpm at room temperature for 24 h. After 24 h incubation, the slurry was filtered and the filtrate analyzed by HPLC for the quantification of the solubilized fraction of compound using a four point calibration curve. Note: The incubation time was decided based on the aqueous stability data. If the compound was stable in the buffer up to 24 hrs, then the solubility was measured after 24 hrs, otherwise kinetic solubility data is reported. The solubility data at different pH conditions at 24 h (mg/mL) is provided in below Table 1.

[2] = molecular target: Kv1.5 channel of voltage-gated K+ channels (Homo sapiens, UniProt P22460); test: Kv1.5 channel inhibition; format: cell-based
Sequence of Kv1.5 channel of voltage-gated K+ channels (P22460 whole entry): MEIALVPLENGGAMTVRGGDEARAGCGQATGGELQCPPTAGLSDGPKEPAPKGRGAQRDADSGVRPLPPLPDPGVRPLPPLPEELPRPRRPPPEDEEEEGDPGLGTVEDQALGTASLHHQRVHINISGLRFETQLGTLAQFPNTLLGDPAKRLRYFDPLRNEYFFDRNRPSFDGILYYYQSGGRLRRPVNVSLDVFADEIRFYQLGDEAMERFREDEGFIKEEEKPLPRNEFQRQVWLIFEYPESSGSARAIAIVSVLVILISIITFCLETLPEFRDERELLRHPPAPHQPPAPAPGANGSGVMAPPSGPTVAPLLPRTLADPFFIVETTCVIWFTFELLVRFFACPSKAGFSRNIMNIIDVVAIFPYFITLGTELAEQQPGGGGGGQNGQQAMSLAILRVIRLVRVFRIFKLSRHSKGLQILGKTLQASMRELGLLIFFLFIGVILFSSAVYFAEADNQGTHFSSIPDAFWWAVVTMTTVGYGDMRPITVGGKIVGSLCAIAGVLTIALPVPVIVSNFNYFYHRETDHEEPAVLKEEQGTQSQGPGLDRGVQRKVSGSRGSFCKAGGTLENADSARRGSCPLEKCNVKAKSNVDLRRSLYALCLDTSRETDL
From the text: Assays to determine the degree of activity of a compound as an IKur inhibitor are well known in the art and are described in references such as J. Gen. Physiol., 101(4):513-543 (April 1993), and Br. J. Pharmacol., 115(2):267-274 (May 1995).
By displaying activity as inhibitors of the Kv1.5 channel of voltage-gated K+ channels, compounds of the present disclosure are expected to be useful in the treatment of human diseases associated with the Kv1.5 channel.

[3] = buffer, pH 1, aqueous buffer, thermodynamic from solid, pH 1, room temperature, read-out: Solubility at 24 h
[4] = buffer, pH 2, aqueous buffer, thermodynamic from solid, pH 2, room temperature, read-out: Solubility at 24 h
[5] = buffer, pH 3, aqueous buffer, thermodynamic from solid, pH 3, room temperature, read-out: Solubility at 24 h
[6] = buffer, pH 5, aqueous buffer, thermodynamic from solid, pH 5, room temperature, read-out: Solubility at 24 h
[7] = buffer, pH 6.5, aqueous buffer, thermodynamic from solid, pH 6.5, room temperature, read-out: Solubility at 24 h
[8] = buffer, pH 7.4, aqueous buffer, thermodynamic from solid, pH 7.4, room temperature, read-out: Solubility at 24 h

Row | SMILES | Solubility at 24 h [1, 3] | Solubility at 24 h [1, 4] | Solubility at 24 h [1, 5] | Solubility at 24 h [1, 6] | Solubility at 24 h [1, 7] | Solubility at 24 h [1, 8] | IC50 [2] | Solubility at 24 h ([1]; pH 1, room temperature) | Solubility at 24 h ([1]; pH 2, room temperature) | Solubility at 24 h ([1]; pH 3, room temperature) | Solubility at 24 h ([1]; pH 5, room temperature) | Solubility at 24 h ([1]; pH 6.5, room temperature) | Solubility at 24 h ([1]; pH 7.4, room temperature)
1 | NS(=O)(=O)c1cncc(-c2nc(NCc3ccccn3)c3c(-c4ccccc4)cccc3n2)c1 [Compound 1, 5-(5-phenyl-4-((pyridin-2-ylmethyl)amino)quinazolin-2-yl)pyridine-3-sulfonamide, reference compound] | 6400 µg/mL (≈ 13700 µM) | 410 µg/mL (≈ 875 µM) | < 1 µg/mL | < 1 µg/mL | < 1 µg/mL | < 1 µg/mL | 46 nM |  |  |  |  |  | 
2 | O=P(O)(O)NS(=O)(=O)c1cncc(-c2nc(NCc3ccccn3)c3c(-c4ccccc4)cccc3n2)c1 [Compound 8, Magnesium (5-(5-phenyl-4-((pyridin-2-ylmethyl)amino)quinazolin-2-yl)pyridin-3-yl)sulfonylphosphoramidate] |  |  |  |  |  |  |  | 600 µg/mL (≈ 1090 µM) | 20 µg/mL (≈ 36.5 µM) | 20 µg/mL (≈ 36.5 µM) | 30 µg/mL (≈ 54.7 µM) | 160 µg/mL (≈ 292 µM) | 190 µg/mL (≈ 346 µM)
3 | O=P(O)(O)NS(=O)(=O)c1cncc(-c2nc(NCc3ccccn3)c3c(-c4ccccc4)cccc3n2)c1 [Compound 2, 5-(5-Phenyl-4-(pyridin-2-ylmethylamino)quinazolin-2-yl)pyridin-3-ylsulfonylphosphoramidic acid] |  |  |  |  |  |  |  | 250 µg/mL (≈ 456 µM) | 30 µg/mL (≈ 54.7 µM) | 10 µg/mL (≈ 18.2 µM) | 2 µg/mL (≈ 3.65 µM) | 110 µg/mL (≈ 201 µM) | 560 µg/mL (≈ 1020 µM)
4 | O=P(O)(O)N(P(=O)(O)O)S(=O)(=O)c1cncc(-c2nc(NCc3ccccn3)c3c(-c4ccccc4)cccc3n2)c1 [Compound 10] | > 1740 µg/mL | > 4050 µg/mL | > 2110 µg/mL | > 5120 µg/mL | > 4580 µg/mL | > 1990 µg/mL |  |  |  |  |  |  | 

The remaining lines, values ahead:

Row | Solubility at 24 h [1, 3] | Solubility at 24 h [1, 4] | Solubility at 24 h [1, 5] | Solubility at 24 h [1, 6] | Solubility at 24 h [1, 7] | Solubility at 24 h [1, 8] | IC50 [2] | Solubility at 24 h ([1]; pH 1, room temperature) | Solubility at 24 h ([1]; pH 2, room temperature) | Solubility at 24 h ([1]; pH 3, room temperature) | Solubility at 24 h ([1]; pH 5, room temperature) | Solubility at 24 h ([1]; pH 6.5, room temperature) | Solubility at 24 h ([1]; pH 7.4, room temperature) | SMILES
5 |  |  |  |  |  |  |  | 990 µg/mL | 120 µg/mL | 20 µg/mL | 70 µg/mL | 1150 µg/mL | 2410 µg/mL | O=P(O)(O)NS(=O)(=O)c1cncc(-c2nc(NCc3ccccn3)c3c(-c4ccccc4)cccc3n2)c1 [Compound 7, Calcium (5-(5-phenyl-4-((pyridin-2-ylmethyl)amino)quinazolin-2-yl)pyridin-3-yl)sulfonylphosphoramidate]
6 |  |  |  |  |  |  |  | 1620 µg/mL (≈ 2950 µM) | 80 µg/mL (≈ 146 µM) | 30 µg/mL (≈ 54.7 µM) | 22 µg/mL (≈ 40.1 µM) | 2023 µg/mL (≈ 3690 µM) | 2514 µg/mL (≈ 4580 µM) | O=P(O)(O)NS(=O)(=O)c1cncc(-c2nc(NCc3ccccn3)c3c(-c4ccccc4)cccc3n2)c1 [Compound 5, Tris-(5-(5-phenyl-4-((pyridin-2-ylmethyl)amino)quinazolin-2-yl)pyridin-3-yl)sulfonylphosphoramidate]
7 |  |  |  |  |  |  |  | 290 µg/mL | 90 µg/mL | 70 µg/mL | 250 µg/mL | 300 µg/mL | >1070 µg/mL | O=P(O)(O)NS(=O)(=O)c1cncc(-c2nc(NCc3ccccn3)c3c(-c4ccccc4)cccc3n2)c1 [Compound 6, Tripotassium (5-(5-phenyl-4-((pyridin-2-ylmethyl)amino)quinazolin-2-yl)pyridin-3-yl)sulfonylphosphoramidate]
8 |  |  |  |  |  |  |  | 750 µg/mL | 110 µg/mL | 20 µg/mL | 150 µg/mL | 4620 µg/mL | 7300 µg/mL | O=P(O)(O)NS(=O)(=O)c1cncc(-c2nc(NCc3ccccn3)c3c(-c4ccccc4)cccc3n2)c1 [Compound 3, Trisodium (5-(5-phenyl-4-((pyridin-2-ylmethyl)amino)quinazolin-2-yl)pyridin-3-yl)sulfonylphosphoramidate]
